Calls of active or inactive are those of the source. The rule behind the calls is not given here.
Target: intestinal alkaline phosphatase Alpi (Mus musculus)
Assay: inhibition of murine Alpi phosphatase – biochemical, luminescence, SAR follow-up (AID 493135)
Conditions: purified mouse IAP, luminescent substrate readout

Row | IC50 | Structure (SMILES)
1 | > 100 µM (inactive) | O=C(Nc1cccc(-c2cccc(F)c2)c1)C1CCN(Cc2ccc(CO)o2)CC1
2 | 7.51 µM | Cc1c(Cl)cccc1Nc1nc(-c2ccc(O)c(O)c2)cs1
3 | 8.17 µM | O=C(CN1C(=O)/C(=C/c2ccco2)SC1=S)Nc1cccc(C(=O)O)c1
4 | > 100 µM (inactive) | Cc1cccc(NC(=S)NCCC(c2ccccc2)c2ccccc2)c1C
5 | 1.55 µM | CCc1ccccc1Nc1nc(-c2ccc(O)c(O)c2)cs1
6 | > 100 µM (inactive) | S=C(NCCC(c1ccccc1)c1ccccc1)Nc1cccc(Cl)c1
7 | 7.97 µM | O=C(CN1C(=O)/C(=C/c2ccco2)SC1=S)Nc1ccc(C(=O)O)cc1
8 | > 100 µM (inactive) | COc1cccc(-c2cccc(NC(=O)C3CCN(Cc4ccc(C)o4)CC3)c2)c1
9 | > 100 µM (inactive) | Cc1ccc(NC(=S)NCCC(c2ccccc2)c2ccccc2)cc1C
10 | > 100 µM (inactive) | CCn1nc(C)c(CN2CCC(C(=O)Nc3cccc(-c4cccc(F)c4)c3)CC2)c1C
11 | > 100 µM (inactive) | C=CCn1cc(CN2CCC(C(=O)Nc3cccc(-c4cccc(F)c4)c3)CC2)c(C)n1
12 | > 100 µM (inactive) | CN(C)S(=O)(=O)c1cccc(NC(=S)NCCC(c2ccccc2)c2ccccc2)c1
13 | 81.8 µM | Cc1cc(NC(=O)CCNS(=O)(=O)c2ccc3[nH]c(=O)oc3c2)ccc1Br
14 | > 100 µM (inactive) | O=S(=O)(Nc1ncccn1)c1ccc(NC(=S)NCCC(c2ccccc2)c2ccccc2)cc1
15 | > 100 µM (inactive) | CCOC(=O)c1ccc(NC(=S)NCCC(c2ccccc2)c2ccccc2)cc1
16 | > 100 µM (inactive) | COc1cccc(-c2cccc(NC(=O)C3CCN(Cc4ccc(CO)o4)CC3)c2)c1
17 | > 100 µM (inactive) | Cn1cc(CN2CCC(C(=O)Nc3cccc(-c4cccc(F)c4)c3)CC2)cn1
18 | > 100 µM (inactive) | Cc1nn(C(C)C)c(C)c1CN1CCC(C(=O)Nc2cccc(-c3cccc(F)c3)c2)CC1
19 | > 100 µM (inactive) | O=[N+]([O-])c1ccc(NC(=S)NCCC(c2ccccc2)c2ccccc2)cc1
20 | > 100 µM (inactive) | Cc1cc(C)cc(NC(=S)NCCC(c2ccccc2)c2ccccc2)c1
21 | > 100 µM (inactive) | Cc1ccc(NC(=S)NCCC(c2ccccc2)c2ccccc2)cc1
22 | > 100 µM (inactive) | CCn1ncc(CN2CCC(C(=O)Nc3cccc(-c4cccc(F)c4)c3)CC2)c1C
23 | > 100 µM (inactive) | CCn1cc(CN2CCC(C(=O)Nc3cccc(-c4cccc(Cl)c4)c3)CC2)cn1

Row | IC50 | Structure (SMILES)
24 | > 100 µM (inactive) | COc1cc([N+](=O)[O-])ccc1NC(=S)NCCC(c1ccccc1)c1ccccc1
25 | > 100 µM (inactive) | FC(F)(F)c1cccc(NC(=S)NCCC(c2ccccc2)c2ccccc2)c1
26 | > 100 µM (inactive) | COc1cc(NC(=S)NCCC(c2ccccc2)c2ccccc2)cc(OC)c1
27 | > 100 µM (inactive) | CCCn1ncc(CN2CCC(C(=O)Nc3cccc(-c4cccc(F)c4)c3)CC2)c1C
28 | > 100 µM (inactive) | CCn1cc(CN2CCC(C(=O)Nc3cccc(-c4cccc(OC)c4)c3)CC2)cn1
29 | > 100 µM (inactive) | CCn1cc(CN2CCC(C(=O)Nc3cccc(-c4cccc(F)c4)c3)CC2)cn1
30 | > 100 µM (inactive) | COc1cccc(NC(=S)NCCC(c2ccccc2)c2ccccc2)c1
31 | > 100 µM (inactive) | COC(=O)c1cc(NC(=S)NCCC(c2ccccc2)c2ccccc2)cc(C(=O)OC)c1
32 | > 100 µM (inactive) | CCn1cc(CN2CCC(C(=O)Nc3cccc(-c4cccc(OC)c4)c3)CC2)c(C)n1
33 | > 100 µM (inactive) | S=C(NCCC(c1ccccc1)c1ccccc1)Nc1ccc(Cl)c(Cl)c1
34 | > 100 µM (inactive) | Cn1cc(CN2CCC(C(=O)Nc3cccc(-c4cccc(Cl)c4)c3)CC2)cn1
35 | 1.9 µM | CCn1c(SCC(=O)c2ccc(O)c(O)c2)nnc1-c1ccccc1OC
36 | > 100 µM (inactive) | COCc1ccc(CN2CCC(C(=O)Nc3cccc(-c4cccc(Cl)c4)c3)CC2)o1
37 | > 100 µM (inactive) | Cc1cc(Cl)ccc1NC(=S)NCCC(c1ccccc1)c1ccccc1
38 | 1.42 µM | COc1ccc(Cl)cc1Nc1nc(-c2ccc(O)c(O)c2)cs1
39 | > 100 µM (inactive) | COc1ccc(C(=O)CSc2n[nH]c(-c3ccccc3)n2)cc1OC
40 | > 100 µM (inactive) | CC1(c2ccccc2)CC(C)(C)N(C(=S)Nc2ccccc2)c2ccccc21 (stereo not drawn)
41 | 87.1 µM | Cc1ccc(NC(=O)CCNS(=O)(=O)c2ccc3[nH]c(=O)oc3c2)cc1C
42 | > 100 µM (inactive) | Cc1c(Cl)cccc1NC(=S)NCCC(c1ccccc1)c1ccccc1
43 | > 100 µM (inactive) | Cc1cc(=O)oc2cc(NC(=S)NCCC(c3ccccc3)c3ccccc3)ccc12
44 | > 100 µM (inactive) | S=C(NCCC(c1ccccc1)c1ccccc1)Nc1ccc(Cl)cc1
45 | > 100 µM (inactive) | NS(=O)(=O)c1ccc(NC(=S)NCCC(c2ccccc2)c2ccccc2)cc1
46 | > 100 µM (inactive) | COc1ccc(NC(=S)NCCC(c2ccccc2)c2ccccc2)cc1

Row | IC50 | Structure (SMILES)
47 | 24.9 µM | CC(C)N1CCC(=NNC(=O)c2cc(O)c(O)c(O)c2)CC1
48 | > 100 µM (inactive) | C=CCn1cc(CN2CCC(C(=O)Nc3cccc(-c4cccc(Cl)c4)c3)CC2)c(C)n1
49 | > 100 µM (inactive) | CC(C)n1cc(CN2CCC(C(=O)Nc3cccc(-c4cccc(Cl)c4)c3)CC2)cn1
50 | > 100 µM (inactive) | Fc1ccccc1NC(=S)NCCC(c1ccccc1)c1ccccc1
51 | > 100 µM (inactive) | Cc1ccc(C)c(NC(=S)NCCC(c2ccccc2)c2ccccc2)c1
52 | > 100 µM (inactive) | Cc1ccc(CN2CCC(C(=O)Nc3cccc(-c4cccc(F)c4)c3)CC2)o1
53 | > 100 µM (inactive) | S=C(NCCC(c1ccccc1)c1ccccc1)Nc1ccc(Cl)cc1Cl
54 | > 100 µM (inactive) | O=C(Nc1cccc(-c2cccc(Cl)c2)c1)C1CCN(Cc2ccc(CO)o2)CC1
55 | > 100 µM (inactive) | Cc1c(CN2CCC(C(=O)Nc3cccc(-c4cccc(Cl)c4)c3)CC2)cnn1C
56 | > 100 µM (inactive) | S=C(NCCC(c1ccccc1)c1ccccc1)Nc1ccccc1
57 | > 100 µM (inactive) | O=C(Nc1cccc(-c2cccc(Cl)c2)c1)C1CCN(C2CCC2)CC1
58 | > 100 µM (inactive) | Fc1ccc(NC(=S)NCCC(c2ccccc2)c2ccccc2)cc1Cl
59 | 58.7 µM | O=C(CN1C(=O)/C(=C\c2ccco2)SC1=S)Nc1ccccc1C(=O)O
60 | > 100 µM (inactive) | CCN1CCN(S(=O)(=O)c2ccc3[nH]c(=O)oc3c2)CC1
61 | > 100 µM (inactive) | Cc1nn(C)c(Cl)c1CN1CCC(C(=O)Nc2cccc(-c3cccc(F)c3)c2)CC1
62 | > 100 µM (inactive) | CC(C)c1ccccc1NC(=S)NCCC(c1ccccc1)c1ccccc1
63 | > 100 µM (inactive) | CC(C)n1cc(CN2CCC(C(=O)Nc3cccc(-c4cccc(F)c4)c3)CC2)cn1
64 | 1.11 µM | Oc1ccc(-c2csc(Nc3cccc4ccccc34)n2)cc1O
65 | > 100 µM (inactive) | COc1ccc(Cl)cc1NC(=S)NCCC(c1ccccc1)c1ccccc1
66 | 38.7 µM | CN1CCC(=NNC(=O)c2cc(O)c(O)c(O)c2)CC1
67 | > 100 µM (inactive) | S=C(NCCC(c1ccccc1)c1ccccc1)Nc1ccc(Nc2ccccc2)cc1
68 | > 100 µM (inactive) | CCn1nc(C)c(CN2CCC(C(=O)Nc3cccc(-c4cccc(Cl)c4)c3)CC2)c1C

Reference: PubChem BioAssay AID493135 (Sanford-Burnham Center for Chemical Genomics, 2011)
